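Growth conditions: 96-well plates. Treatment: test compound, 48 hours, 5 concentrations. Analysis: linear interpolation between bracketing concentrations; unreached endpoints set to highest concentration. GI50 is the concentration that inhibits growth by half.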 Activity calls are given as the source filed them. No stated cut-off is given here; in the data, active = GI50 up to about 1.1 µM and inactive = higher.

The values below come from ChEMBL document CHEMBL1201862, “PubChem BioAssay data set” (2004).

Experiment in all cases: DTP human tumour cell line panel, 48 h
For assay [1], the system named is UACC-62.
Assay [2] relates to RXF 393.
For assay [3], the system named is SK-MEL-5.
Assay [4] relates to K562.
The test system of assay [5] is OVCAR-8.
Assay [6] relates to HCT-116.
The subject of assay [7] is SK-OV-3.
Assay [8] concerns HCT-15.
For assay [9], the system named is 786-0.
Assay [10] relates to M14.
Assay [11] deals with ACHN.
Assay [12] relates to A549.
The test system of assay [13] is MDA-MB-231.
The test system of assay [14] is HL-60.
Assay [15] has as its system CAKI-1.
The subject of assay [16] is NCI/ADR-RES.
In assay [17] the test system is SF-268.
The subject of assay [18] is IGROV-1.
In assay [19] the test system is OVCAR-4.
For assay [20], the system named is HCC 2998.

For `COc1ccc(-c2cc3ccccc3oc2=O)cc1OC`, the GI50 was > 100 µM (inactive) in assay [1]; > 100 µM (inactive) in assay [2]; 81.5 µM (inactive) in [3]; > 100 µM (inactive) in assay [4]; > 100 µM (inactive) in [5]; > 100 µM (inactive) in [6]. The GI50 is 20.3 µM (inactive) in assay [7]; above 100 µM in [8]; 70 µM (inactive) in [9]; > 100 µM (inactive) in [10]; > 100 µM (inactive) in assay [11]; > 100 µM (inactive) in assay [12]. The GI50 in assay [13], in assay [14], in assay [15], in assay [16], in assay [17] and in [18] was > 100 µM (inactive) each time. In addition, the GI50 in [19] is > 100 µM (inactive); in [20], > 10 µM (inactive).

With `N#CC(NC12CC3CC(CC(C3)C1)C2)c1ccc2c(c1)OCO2` (stereo not given), the GI50 in assay [1], in assay [2], in assay [3], in assay [4], in assay [5] and in assay [6] was > 100 µM (inactive) in each case. Besides, the GI50 in assay [7] is > 100 µM (inactive); in [8] it was above 100 µM; in assay [9], > 100 µM (inactive); in assay [10], > 100 µM (inactive); in assay [11] it was > 100 µM (inactive); in assay [12], > 100 µM (inactive). In addition, the GI50 in assay [13], in assay [14], in assay [15], in assay [16], in assay [17] and in assay [18] was > 100 µM (inactive) in each case. Also, the GI50 in assay [19] and in assay [20] was > 100 µM (inactive) throughout.

Regarding `CCN(CC)C(=S)SC(=S)N(CC)CC`, the GI50 in assay [1] is 20.8 µM (inactive); in [2] it was 36.6 µM (inactive); in [3] it was 5.07 µM (inactive); in [4] it was 28 µM (inactive); in assay [5], 31.6 µM (inactive); in assay [6], 21 µM (inactive). Further, the GI50 in assay [7] is > 100 µM (inactive); in [8], 55 µM; in assay [9] it was 23.7 µM (inactive); in assay [10] it was 44.5 µM (inactive); in assay [11], 35.4 µM (inactive); in assay [12], 28.5 µM (inactive). In addition, the GI50 in assay [13] is 32.9 µM (inactive); in [14] it was 29.5 µM (inactive); in assay [15] it was 36.1 µM (inactive); in assay [16], 42.5 µM (inactive); in assay [17] it was 41.9 µM (inactive); in assay [18] it was 30.5 µM (inactive). Also, the GI50 in [19] was 19.9 µM (inactive); in [20], 1.93 µM (inactive).

Take `C=C1C(=O)O[C@H]2C3C(=C(C)CC[C@@H]12)C(=O)[C@@H]1OC31C` (stereo not given in full): the GI50 in assay [1] was 2.04 µM (inactive); in [2], 1.56 µM (inactive); in assay [3], 1.59 µM (inactive); in assay [4], 0.698 µM (active); in assay [5], 2.18 µM (inactive); in [6] it was 1.11 µM (active). For the same compound, the GI50 in assay [7] was 15.4 µM (inactive); in [8], 1.66 µM; in assay [9], 1.86 µM (inactive); in assay [10], 1.68 µM (inactive); in assay [11] it was 2.6 µM (inactive); in assay [12] it was 13 µM (inactive). For the same compound, the GI50 is 3.94 µM (inactive) in [13]; 0.23 µM (active) in [14]; 2.67 µM (inactive) in assay [15]; 3.13 µM (inactive) in assay [16]; 5.19 µM (inactive) in [17]; 5.45 µM (inactive) in assay [18]. Also, the GI50 in [19] was 1.58 µM (inactive); in assay [20], 14.7 µM (inactive).

Usually GI50 stands for the concentration that inhibits growth by half.
